In ChEMBL document CHEMBL5226389, “Isolation of the Anti-Inflammatory Agent Myceliostatin from a Methionine-Enriched Culture of Myceliophthora thermophila ATCC 42464” (J Nat Prod, 2023):
Calls of active or inactive are those of the source. No cut-off for these calls is given here.

Columns and labels:
RAW264.7 [1] = test: Inhibition of LPS-induced NO production in mouse RAW264.7 cells at 0.3 to 3 microg/ml incubated for 24 hrs by griess reagent based microplate reader analysis; type: functional, cell-based; conditions: dose 0.3-3 µg/ml
RAW264.7 [2] = test: Cytotoxicity against mouse RAW264.7 cells assessed as reduction in cell viability at 3 microg/ml incubated for 24 hrs by MTT assay; type: toxicity, cell-based; conditions: raw264.7, 24 h, dose 3 µg/ml
RAW264.7 [3] = test: Antiinflammatory activity in mouse RAW264.7 cells assessed as inhibition of LPS-induced NFkB p65 activation at 3 to 10 microg/ml for 2 hrs followed by LPS stimulation for 2 hrs; type: functional, cell-based; conditions: dose 3-10 µg/ml, time 4.0 hrs
RAW264.7 [4] = test: Inhibition of LPS-induced ROS production in mouse RAW264.7 cells at 3 to 10 microg/ml preincubated for 1 hr followed by LPS stimulation and measured after 24 hrs by DCFH-DA staining based fluorescence analysis; type: functional, cell-based; conditions: dose 3-10 µg/ml, time 25.0 hrs
RAW264.7 [5] = test: Cytotoxicity against mouse RAW264.7 cells assessed as reduction in cell viability at 10 microg/ml incubated for 4 hrs by MTT assay; type: toxicity, cell-based; conditions: raw264.7, 4 h, dose 10 µg/ml
RAW264.7 [6] = test: Antiinflammatory activity in LPS-stimulated mouse RAW264.7 cells assessed as inhibition of IL-6 level incubated for 24 hrs by RT-PCR analysis; type: functional, cell-based
RAW264.7 [7] = test: Antiinflammatory activity in LPS-stimulated mouse RAW264.7 cells assessed as inhibition of IL-1beta level incubated for 24 hrs by RT-PCR analysis; type: functional, cell-based

SMILES	inhibition (RAW264.7 [1])	Activity (RAW264.7 [2])	Activity (RAW264.7 [3])	inhibition (RAW264.7 [4])	Activity (RAW264.7 [5])	Activity (RAW264.7 [6])	Activity (RAW264.7 [7])
C/C=C(\C)[C@H]1C(C)=C[C@@]2(C)C[C@@H](C)CC[C@@H]2[C@H]1C(=O)C1=C(SC)[C@](O)(CC(C)C)NC1=O	Active	Non-Toxic					
C/C=C(\C)[C@H]1C(C)=C[C@@]2(C)C[C@@H](C)CC[C@@H]2[C@H]1C(=O)C1=C(SC)[C@@](O)(CC(C)C)NC1=O	Active	Non-Toxic	Active	Active	Non-Toxic	Active	Active
